Measurements taken from US4639433A, “Glycopeptide derivatives” (Eli Lilly and Company, priority 1985, dated 1987).
≈ marks a conversion by molar mass, not a printed value.

Assays:
[1] = tested on: Staphylococcus aureus; test: Experimental bacterial infection in mice, ED50; type: in vivo; conditions: two doses, administered subcutaneously
[2] = tested on: Streptococcus pyogenes; test: Experimental bacterial infection in mice, ED50; type: in vivo; conditions: two doses, administered subcutaneously
[3] = tested on: Streptococcus pneumoniae; test: Experimental bacterial infection in mice, ED50; type: in vivo; conditions: two doses, administered subcutaneously
[4] = tested on: Staphylococcus aureus NRRL B313; conditions: agar dilution
[5] = tested on: Staphylococcus aureus V41; conditions: agar dilution
[6] = tested on: Staphylococcus aureus X400; conditions: agar dilution
[7] = tested on: Staphylococcus aureus S13E; conditions: agar dilution
[8] = tested on: Staphylococcus epidermidis EPI1; conditions: agar dilution
[9] = tested on: Staphylococcus epidermidis 222; conditions: agar dilution
[10] = tested on: Streptococcus pyogenes C203; conditions: agar dilution
[11] = tested on: Streptococcus pneumoniae Park 1; conditions: agar dilution
[12] = tested on: Streptococcus faecium ATCC 9790; conditions: agar dilution
[13] = tested on: Streptococcus sp. group D 2041; conditions: agar dilution
[14] = tested on: Haemophilus influenzae C.L.; conditions: agar dilution
[15] = tested on: Haemophilus influenzae 76; conditions: agar dilution
[16] = tested on: Escherichia coli N10; conditions: agar dilution
[17] = tested on: Escherichia coli EC14; conditions: agar dilution
[18] = tested on: Escherichia coli TEM; conditions: agar dilution
[19] = tested on: Klebsiella pneumoniae X26; conditions: agar dilution
[20] = tested on: Klebsiella pneumoniae X68; conditions: agar dilution
[21] = tested on: Klebsiella pneumoniae KAE; conditions: agar dilution

## CCCC(=O)NC1(C)CC(OC2C(Oc3c4cc5cc3Oc3ccc(cc3Cl)C(O)C3NC(=O)C(NC(=O)C5NC(=O)C(CC(N)=O)NC(=O)C(NC(=O)C(CC(C)C)NC)C(O)c5ccc(c(Cl)c5)O4)c4ccc(O)c(c4)-c4c(O)cc(O)cc4C(C(=O)O)NC3=O)OC(CO)C(O)C2O)OC(C)C1O (stereo not drawn) [Compound 1, N^van --(1-oxo-n-butyl)vancomycin]
[1]
  ED50: 6.3 mg/kg/2
[2]
  ED50: 5.5 mg/kg/2
[3]
  ED50: 3.6 mg/kg/2
[4]
  MIC: 2 µg/mL (≈ 1.32 µM)
[5]
  MIC: 2 µg/mL (≈ 1.32 µM)
[6]
  MIC: 2 µg/mL (≈ 1.32 µM)
[7]
  MIC: 2 µg/mL (≈ 1.32 µM)
[8]
  MIC: 8 µg/mL (≈ 5.27 µM)
[9]
  MIC: 4 µg/mL (≈ 2.63 µM)
[10]
  MIC: 1 µg/mL (≈ 0.658 µM)
[11]
  MIC: 1 µg/mL (≈ 0.658 µM)
[12]
  MIC: 2 µg/mL (≈ 1.32 µM)
[13]
  MIC: 8 µg/mL (≈ 5.27 µM)
[14]
  MIC: -- (not active at 128 mcg/ml)
[15]
  MIC: -- (not active at 128 mcg/ml)
[16]
  MIC: -- (not active at 128 mcg/ml)
[17]
  MIC: -- (not active at 128 mcg/ml)
[18]
  MIC: -- (not active at 128 mcg/ml)
[19]
  MIC: -- (not active at 128 mcg/ml)
[20]
  MIC: -- (not active at 128 mcg/ml)
[21]
  MIC: -- (not active at 128 mcg/ml)

## CCCCCC(=O)NC1(C)CC(OC2C(Oc3c4cc5cc3Oc3ccc(cc3Cl)C(O)C3NC(=O)C(NC(=O)C5NC(=O)C(CC(N)=O)NC(=O)C(NC(=O)C(CC(C)C)NC)C(O)c5ccc(c(Cl)c5)O4)c4ccc(O)c(c4)-c4c(O)cc(O)cc4C(C(=O)O)NC3=O)OC(CO)C(O)C2O)OC(C)C1O (stereo not drawn) [Compound 2, N^van --(1-oxo-n-hexyl)vancomycin]
[1]
  ED50: 11.2 mg/kg/2
[2]
  ED50: 12.9 mg/kg/2
[3]
  ED50: 3.5 mg/kg/2
[4]
  MIC: 2 µg/mL (≈ 1.29 µM)
[5]
  MIC: 4 µg/mL (≈ 2.58 µM)
[6]
  MIC: 4 µg/mL (≈ 2.58 µM)
[7]
  MIC: 4 µg/mL (≈ 2.58 µM)
[8]
  MIC: 16 µg/mL (≈ 10.3 µM)
[9]
  MIC: 8 µg/mL (≈ 5.17 µM)
[10]
  MIC: 2 µg/mL (≈ 1.29 µM)
[11]
  MIC: 2 µg/mL (≈ 1.29 µM)
[12]
  MIC: 4 µg/mL (≈ 2.58 µM)
[13]
  MIC: 16 µg/mL (≈ 10.3 µM)
[14]
  MIC: -- (not active at 128 mcg/ml)
[15]
  MIC: 128 µg/mL (≈ 82.7 µM)
[16]
  MIC: -- (not active at 128 mcg/ml)
[17]
  MIC: -- (not active at 128 mcg/ml)
[18]
  MIC: -- (not active at 128 mcg/ml)
[19]
  MIC: -- (not active at 128 mcg/ml)
[20]
  MIC: -- (not active at 128 mcg/ml)
[21]
  MIC: -- (not active at 128 mcg/ml)

## CNC(CC(C)C)C(=O)NC1C(=O)NC(CC(N)=O)C(=O)NC2C(=O)NC3C(=O)NC(C(=O)NC(C(=O)O)c4cc(O)cc(O)c4-c4cc3ccc4O)C(O)c3ccc(c(Cl)c3)Oc3cc2cc(c3OC2OC(CO)C(O)C(O)C2OC2CC(C)(NC(=O)C(N)C(C)C)C(O)C(C)O2)Oc2ccc(cc2Cl)C1O (stereo not drawn) [Compound 33, N^van --(2-amino-1-oxo-isopentyl)vancomycin]
[4]
  MIC: 8 µg/mL (≈ 5.17 µM)
[5]
  MIC: 8 µg/mL (≈ 5.17 µM)
[6]
  MIC: 32 µg/mL (≈ 20.7 µM)
[7]
  MIC: 8 µg/mL (≈ 5.17 µM)
[8]
  MIC: 32 µg/mL (≈ 20.7 µM)
[9]
  MIC: 32 µg/mL (≈ 20.7 µM)
[10]
  MIC: 8 µg/mL (≈ 5.17 µM)
[11]
  MIC: 8 µg/mL (≈ 5.17 µM)
[12]
  MIC: 8 µg/mL (≈ 5.17 µM)
[13]
  MIC: 32 µg/mL (≈ 20.7 µM)
[14]
  MIC: -- (not active at 128 mcg/ml)
[15]
  MIC: -- (not active at 128 mcg/ml)
[16]
  MIC: -- (not active at 128 mcg/ml)
[17]
  MIC: -- (not active at 128 mcg/ml)
[18]
  MIC: -- (not active at 128 mcg/ml)
[19]
  MIC: -- (not active at 128 mcg/ml)
[20]
  MIC: -- (not active at 128 mcg/ml)
[21]
  MIC: -- (not active at 128 mcg/ml)

## CNC(CC(C)C)C(=O)NC1C(=O)NC(CC(N)=O)C(=O)NC2C(=O)NC3C(=O)NC(C(=O)NC(C(=O)O)c4cc(O)cc(O)c4-c4cc3ccc4O)C(O)c3ccc(c(Cl)c3)Oc3cc2cc(c3OC2OC(CO)C(O)C(O)C2OC2CC(C)(NC(=O)CC(C)C)C(O)C(C)O2)Oc2ccc(cc2Cl)C1O (stereo not drawn) [Compound 34, N^van --(1-oxo-isopentyl)vancomycin]
[4]
  MIC: 2 µg/mL (≈ 1.3 µM)
[5]
  MIC: 2 µg/mL (≈ 1.3 µM)
[6]
  MIC: 2 µg/mL (≈ 1.3 µM)
[7]
  MIC: 2 µg/mL (≈ 1.3 µM)
[8]
  MIC: 8 µg/mL (≈ 5.22 µM)
[9]
  MIC: 4 µg/mL (≈ 2.61 µM)
[10]
  MIC: 1 µg/mL (≈ 0.652 µM)
[11]
  MIC: 1 µg/mL (≈ 0.652 µM)
[12]
  MIC: 2 µg/mL (≈ 1.3 µM)
[13]
  MIC: 8 µg/mL (≈ 5.22 µM)
[14]
  MIC: -- (not active at 128 mcg/ml)
[15]
  MIC: -- (not active at 128 mcg/ml)
[16]
  MIC: -- (not active at 128 mcg/ml)
[17]
  MIC: -- (not active at 128 mcg/ml)
[18]
  MIC: -- (not active at 128 mcg/ml)
[19]
  MIC: -- (not active at 128 mcg/ml)
[20]
  MIC: -- (not active at 128 mcg/ml)
[21]
  MIC: -- (not active at 128 mcg/ml)

## CNC(CC(C)C)C(=O)NC1C(=O)NC(CC(N)=O)C(=O)NC2C(=O)NC3C(=O)NC(C(=O)NC(C(=O)O)c4cc(O)cc(O)c4-c4cc3ccc4O)C(O)c3ccc(c(Cl)c3)Oc3cc2cc(c3OC2OC(CO)C(O)C(O)C2OC2CC(C)(NC(=O)CCCCCBr)C(O)C(C)O2)Oc2ccc(cc2Cl)C1O (stereo not drawn) [Compound 35, N^van --(6-bromo-n-hexyl)vancomycin]
[4]
  MIC: 2 µg/mL (≈ 1.23 µM)
[5]
  MIC: 2 µg/mL (≈ 1.23 µM)
[6]
  MIC: 4 µg/mL (≈ 2.46 µM)
[7]
  MIC: 2 µg/mL (≈ 1.23 µM)
[8]
  MIC: 8 µg/mL (≈ 4.92 µM)
[9]
  MIC: 4 µg/mL (≈ 2.46 µM)
[10]
  MIC: 2 µg/mL (≈ 1.23 µM)
[11]
  MIC: 1 µg/mL (≈ 0.615 µM)
[12]
  MIC: 2 µg/mL (≈ 1.23 µM)
[13]
  MIC: 8 µg/mL (≈ 4.92 µM)
[14]
  MIC: -- (not active at 128 mcg/ml)
[15]
  MIC: -- (not active at 128 mcg/ml)
[16]
  MIC: -- (not active at 128 mcg/ml)
[17]
  MIC: -- (not active at 128 mcg/ml)
[18]
  MIC: -- (not active at 128 mcg/ml)
[19]
  MIC: -- (not active at 128 mcg/ml)
[20]
  MIC: -- (not active at 128 mcg/ml)
[21]
  MIC: -- (not active at 128 mcg/ml)

## CNC(CC(C)C)C(=O)NC1C(=O)NC(CC(N)=O)C(=O)NC2C(=O)NC3C(=O)NC(C(=O)NC(C(=O)O)c4cc(O)cc(O)c4-c4cc3ccc4O)C(O)c3ccc(c(Cl)c3)Oc3cc2cc(c3OC2OC(CO)C(O)C(O)C2OC2CC(C)(NC(=O)CCC(C)=O)C(O)C(C)O2)Oc2ccc(cc2Cl)C1O (stereo not drawn) [Compound 36, N^van --(3-acetyl-1-oxo-n-propyl)vancomycin]
[4]
  MIC: 2 µg/mL (≈ 1.29 µM)
[5]
  MIC: 2 µg/mL (≈ 1.29 µM)
[6]
  MIC: 2 µg/mL (≈ 1.29 µM)
[7]
  MIC: 4 µg/mL (≈ 2.59 µM)
[8]
  MIC: 16 µg/mL (≈ 10.3 µM)
[9]
  MIC: 4 µg/mL (≈ 2.59 µM)
[10]
  MIC: 1 µg/mL (≈ 0.646 µM)
[11]
  MIC: 1 µg/mL (≈ 0.646 µM)
[12]
  MIC: 4 µg/mL (≈ 2.59 µM)
[13]
  MIC: 8 µg/mL (≈ 5.17 µM)
[14]
  MIC: -- (not active at 128 mcg/ml)
[15]
  MIC: -- (not active at 128 mcg/ml)
[16]
  MIC: -- (not active at 128 mcg/ml)
[17]
  MIC: -- (not active at 128 mcg/ml)
[18]
  MIC: -- (not active at 128 mcg/ml)
[19]
  MIC: -- (not active at 128 mcg/ml)
[20]
  MIC: -- (not active at 128 mcg/ml)
[21]
  MIC: -- (not active at 128 mcg/ml)

## CN[C@H](CC(C)C)C(=O)N[C@H]1C(=O)N[C@@H](CC(N)=O)C(=O)N[C@H]2C(=O)N[C@H]3C(=O)N[C@H](C(=O)N[C@H](C(=O)O)c4cc(O)cc(O)c4-c4cc3ccc4O)[C@H](O)c3ccc(c(Cl)c3)Oc3cc2cc(c3O[C@@H]2O[C@H](CO)[C@@H](O)[C@H](O)[C@H]2O[C@H]2C[C@](C)(N)[C@H](O)[C@H](C)O2)Oc2ccc(cc2Cl)[C@H]1O [vancomycin, reference compound]
[1]
  ED50: 1.8-3.7 mg/kg/2
[2]
  ED50: 0.99-1.1 mg/kg/2
[3]
  ED50: 0.90-0.93 mg/kg/2
